The values below are quoted from earlier work in patent US20240139276A1, “HAIR GROWTH AGENT” (ADJUVANT HOLDINGS CO., LTD., priority 2021, published 2024).

Data set [1] relates to vascular endothelial growth factor (VEGF) expression in human dermal papilla cells. As to conditions: adenosine allowed to act on human dermal papilla cells.
Data set [2] relates to fibroblast growth factor 7 (FGF-7) expression in human dermal papilla cells. The following applies: adenosine allowed to act on human dermal papilla cells.

`Nc1ncnc2c1ncn2[C@@H]1O[C@H](CO)[C@@H](O)[C@H]1O` [adenosine]: the “expression of vascular endothelial growth factor (VEGF)” value in data set [1] was “promotes expression of vascular endothelial growth factor (VEGF)”. Moreover, in data set [2], the “expression of fibroblast growth factor 7 (FGF-7)” value is reported as “also promotes expression of fibroblast growth factor 7 (FGF-7)”.
